In BindingDB's records for doi:10.1021/jm0010365 (Universita' Degli Studi Di Salerno, 2001):

Experiment: Inhibition of HIV-1 Mutant HIV-1 RT enzymes containing the single amino acid substitution V179D

| SMILES | Ki [nM] |
| --- | --- |
| S=C(NCCOc1nc2cc(Cl)ccc2n2cccc12)Nc1ccc(Br)cn1 [1-(5-Bromo-pyridin-2-yl)-3-[2-(7-chloro-pyrrolo[1,2-a]quinoxalin-4-yloxy)-ethyl]-thiourea] | 70 |
| Cc1cc2nc(OCCNC(=S)Nc3ccc(Br)cn3)c3cccn3c2cc1C [1-(5-Bromo-pyridin-2-yl)-3-[2-(7,8-dimethyl-pyrrolo[1,2-a]quinoxalin-4-yloxy)-ethyl]-thiourea] | 800 |
